Calls of active or inactive are those of the source. The calls are words filed in the database; no cut-off is given here.
Legend:
[1] = target: T1, Tyrosine-protein phosphatase non-receptor type 1 (Homo sapiens) (UniProt P18031); experiment: Inhibition of human recombinant PTP1B using phosphopeptide as substrate at 10 uM after 30 mins by malachite green assay relative to control
T1 sequence (whole entry): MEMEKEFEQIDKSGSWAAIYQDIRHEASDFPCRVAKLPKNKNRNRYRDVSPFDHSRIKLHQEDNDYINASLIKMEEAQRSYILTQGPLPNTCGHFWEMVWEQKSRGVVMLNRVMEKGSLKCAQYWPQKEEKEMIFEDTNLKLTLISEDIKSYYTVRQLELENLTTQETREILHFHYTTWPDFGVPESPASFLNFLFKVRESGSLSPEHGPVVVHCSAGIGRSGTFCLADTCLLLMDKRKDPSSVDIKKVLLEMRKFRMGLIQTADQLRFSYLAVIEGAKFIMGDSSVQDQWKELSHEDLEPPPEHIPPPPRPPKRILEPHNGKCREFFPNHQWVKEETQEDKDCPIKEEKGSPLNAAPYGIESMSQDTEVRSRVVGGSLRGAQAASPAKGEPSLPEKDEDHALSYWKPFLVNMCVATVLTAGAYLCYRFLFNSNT

[2] = system: Rattus norvegicus; experiment: Antihyperglycemic activity in streptozotocin-induced Sprague-Dawley albino rat diabetic model assessed as reduction of blood glucose AUC (0 to 24 hrs) at 100 mg/kg, po by glucometer relative to control; type: functional; design: scale not given: the % may be the effect or the level left
[3] = system: Rattus norvegicus; experiment: Antihyperglycemic activity in streptozotocin-induced Sprague-Dawley albino rat diabetic model assessed as reduction of blood glucose AUC (0 to 5 hrs) at 100 mg/kg, po by glucometer relative to control; type: functional; design: scale not given: the % may be the effect or the level left
[4] = target: T2, Tyrosine-protein phosphatase non-receptor type 1 (Homo sapiens, UniProt P18031); experiment: Inhibition of human recombinant PTP1B using phosphopeptide as substrate after 30 mins by malachite green assay
T2 sequence (P18031 whole entry): T1 sequence (whole entry)

[5] = system: Mus musculus; experiment: Antihyperglycemic activity in C57BL/Ks db/db mouse assessed as reduction of blood glucose level at 30 mg/kg measured from day 8 to day 14; type: functional, organism-based; design: dose 30 mg/kg
[6] = system: Mus musculus; experiment: In vivo inhibition of PTP1B in skeletal muscle of C57BL/Ks db/db mouse assessed as upregulation of p-IRSI protein expression at 30 mg/kg, po by Western blot analysis relative to vehicle-treated sham control; type: functional, Muscle tissue
[7] = system: Mus musculus; experiment: Antidiabetic activity in C57BL/Ks db/db mouse assessed as improvement of HOMA index at 30 mg/kg relative to vehicle-treated sham control; type: functional
[8] = system: Mus musculus; experiment: Antidiabetic activity in C57BL/Ks db/db mouse assessed as restoration of altered insulin level in serum at 30 mg/kg relative to vehicle-treated sham control; type: functional
[9] = system: Mus musculus; experiment: Antidiabetic activity in C57BL/Ks db/db mouse assessed as normalization of fasting blood glucose level at 30 mg/kg relative to vehicle-treated sham control; type: functional
[10] = system: Mus musculus; experiment: Antidyslipidemic activity in C57BL/Ks db/db mouse assessed as increase in serum HDL-cholesterol level at 30 mg/kg measured on day 10 to 15 relative to vehicle-treated sham control; type: functional
[11] = system: Mus musculus; experiment: Antidyslipidemic activity in C57BL/Ks db/db mouse assessed as reduction of serum cholesterol level at 30 mg/kg measured on day 10 to 15 relative to vehicle-treated sham control; type: functional
[12] = system: Mus musculus; experiment: Antidyslipidemic activity in C57BL/Ks db/db mouse assessed as reduction of serum triglyceride level at 30 mg/kg measured on day 10 to 15 relative to vehicle-treated sham control; type: functional
[13] = system: Mus musculus; experiment: Antihyperglycemic activity in C57BL/Ks db/db mouse assessed as reduction of blood glucose AUC (0 to 120 mins) at 30 mg/kg measured on day 15 by OGTT relative to vehicle-treated sham control; type: functional
[14] = system: Mus musculus; experiment: Antihyperglycemic activity in C57BL/Ks db/db mouse assessed as reduction of blood glucose AUC (0 to 120 mins) at 30 mg/kg measured on day 10 by OGTT relative to vehicle-treated sham control; type: functional
[15] = target: T2, Tyrosine-protein phosphatase non-receptor type 1; experiment: Competitive inhibition of human recombinant PTP1B using IR5 as substrate by Lineweaver-Burk plot analysis
[16] = system: Mus musculus; experiment: Antihyperglycemic activity in C57BL/Ks db/db mouse assessed as reduction of blood glucose level at 10 mg/kg measured from day 6 to day 14; type: functional, organism-based; design: dose 10 mg/kg
[17] = system: Mus musculus; experiment: In vivo inhibition of PTP1B in skeletal muscle of C57BL/Ks db/db mouse assessed as upregulation of p-IRSI protein expression at 10 mg/kg, po by Western blot analysis relative to vehicle-treated sham control; type: functional, Muscle tissue
[18] = system: Mus musculus; experiment: Antidiabetic activity in C57BL/Ks db/db mouse assessed as improvement of HOMA index at 10 mg/kg relative to vehicle-treated sham control; type: functional
[19] = system: Mus musculus; experiment: Antidiabetic activity in C57BL/Ks db/db mouse assessed as restoration of altered insulin level in serum at 10 mg/kg relative to vehicle-treated sham control; type: functional
[20] = system: Mus musculus; experiment: Antidiabetic activity in C57BL/Ks db/db mouse assessed as normalization of fasting blood glucose level at 10 mg/kg relative to vehicle-treated sham control; type: functional
[21] = system: Mus musculus; experiment: Antidyslipidemic activity in C57BL/Ks db/db mouse assessed as increase in serum HDL-cholesterol level at 10 mg/kg measured on day 10 to 15 relative to vehicle-treated sham control; type: functional
[22] = system: Mus musculus; experiment: Antidyslipidemic activity in C57BL/Ks db/db mouse assessed as reduction of serum cholesterol level at 10 mg/kg measured on day 10 to 15 relative to vehicle-treated sham control; type: functional
[23] = system: Mus musculus; experiment: Antidyslipidemic activity in C57BL/Ks db/db mouse assessed as reduction of serum triglyceride level at 10 mg/kg measured on day 10 to 15 relative to vehicle-treated sham control; type: functional
[24] = system: Mus musculus; experiment: Antihyperglycemic activity in C57BL/Ks db/db mouse assessed as reduction of blood glucose AUC (0 to 120 mins) at 10 mg/kg, po measured on day 15 by OGTT relative to vehicle-treated sham control; type: functional
[25] = system: Mus musculus; experiment: Antihyperglycemic activity in C57BL/Ks db/db mouse assessed as reduction of blood glucose AUC (0 to 120 mins) at 10 mg/kg measured on day 10 by OGTT relative to vehicle-treated sham control; type: functional

Row | Compound | inhibition [1] | Activity [2] | Activity [3] | also measured
1 | O=C(NCc1cccc([N+](=O)[O-])c1)NCc1ccco1 | 46.8% |  |  | 
2 | CC(=O)Nc1ccc(CNC(=O)NCc2ccccc2)cc1 | 60.9% | 14.8% | 14.2% | IC50 [4]: 9.39 µM
3 | O=C(NCc1ccccc1)NCc1ccc(-c2ccc([N+](=O)[O-])cc2)o1 | 21.4% | 18.8% | 12.5% | 
4 | O=C(NCc1cccc(Cl)c1)NCc1cccc([N+](=O)[O-])c1 | 32.9% |  |  | 
5 | COc1cc(CNC(=O)NCc2cccc([N+](=O)[O-])c2)cc(OC)c1OC | 7.5% |  |  | 
6 | O=C(NCc1ccccc1)NCc1ccsc1 | 31.2% |  |  | 
7 | O=C(NCc1cccc([N+](=O)[O-])c1)NCc1ccc(-c2ccc([N+](=O)[O-])cc2)o1 | 68.4% | 20% | 18.4% | IC50 [4]: 8.06 µM
8 | COc1ccc(CNC(=O)NCc2cccc([N+](=O)[O-])c2)cc1 | 2.85% |  |  | 
9 | CC(C)(C)c1cc(CNC(=O)NCc2ccccc2)c(O)c(C(C)(C)C)c1 | 18.9% |  |  | 
10 | Cc1ccc(C(=O)Nc2ccc(S(=O)(=O)O)c3cc(S(=O)(=O)O)cc(S(=O)(=O)O)c23)cc1NC(=O)c1cccc(NC(=O)Nc2cccc(C(=O)Nc3cc(C(=O)Nc4ccc(S(=O)(=O)O)c5cc(S(=O)(=O)O)cc(S(=O)(=O)O)c45)ccc3C)c2)c1 | 60% |  |  | 
11 | O=C(NCc1cccc([N+](=O)[O-])c1)NCc1cccc(-c2cccc([N+](=O)[O-])c2)n1 | 40% |  |  | 
12 | O=C(NCc1ccccc1)NCc1cccc([N+](=O)[O-])c1 | 2.4% |  |  | 
13 | O=C(NCc1cccc([N+](=O)[O-])c1)NCc1ccccc1[N+](=O)[O-] | 79.4% | 21.7% | 20.4% | Activity [5]: Active; fold change (FC) [6]: 1.25; Efficacy [7]: 69.7%; Efficacy [8]: 34.5%; Efficacy [9]: 52.3%; Efficacy [10]: 46.8%; Efficacy [11]: 16.3%; Efficacy [12]: 8.9%; Efficacy [13]: 35.9%; Efficacy [14]: 24.1%; Ki [15]: 7.88 µM; IC50 [4]: 7.47 µM
14 | O=C(NCc1ccccc1)NCc1c[nH]c2ccc(Cl)cc12 | 19% |  |  | 
15 | CCc1ccc(CCOc2ccc(CC3SC(=O)NC3=O)cc2)nc1 (stereo unspecified) [PIOGLITAZONE] |  |  |  | Activity [16]: Active; fold change (FC) [17]: 1.37; Efficacy [18]: 70.3%; Efficacy [19]: 46.1%; Efficacy [20]: 64.7%; Efficacy [21]: 11.1%; Efficacy [22]: 9.17%; Efficacy [23]: 12.6%; Efficacy [24]: 52.9%; Efficacy [25]: 40.8%
16 | COc1cc(CNC(=O)NCc2cccc([N+](=O)[O-])c2)cc(OC)c1 | 2.81% |  |  | 
17 | CN(C)C(=N)NC(=N)N [METFORMIN] |  | 23.3% | 21% | 
18 | COc1cc(Cl)c(CNC(=O)NCc2ccccc2)c(Cl)c1OC | 13.7% |  |  | 
19 | COc1cc(CNC(=O)NCc2ccccc2)ccc1O | 14.9% |  |  | 
20 | COc1cc(OC)c(CNC(=O)NCc2ccccc2)c(OC)c1 | 78.8% | 18.6% | 16.1% | IC50 [4]: 7.6 µM
21 | O=C(NCc1ccccc1)NCc1ccc([N+](=O)[O-])cc1 | 0.9% |  |  | 
22 | COc1cc(Cl)c(CNC(=O)NCc2cccc([N+](=O)[O-])c2)c(Cl)c1OC | 56.6% | 2.54% | 7.26% | IC50 [4]: 9.91 µM
23 | O=C(NCc1ccccc1)NCc1ccccc1[N+](=O)[O-] | 2.1% |  |  | 

From ChEMBL document CHEMBL3217472, “Identification of novel urea derivatives as PTP1B inhibitors: synthesis, biological evaluation and structureactivity relationships” (Medchemcomm, 2013)
